According to US20250145633A1, “SUBSTITUTED FURANOPYRIMIDINE COMPOUNDS AS PDE1 INHIBITORS” (Dart NeuroScience, LLC, priority 2017, published 2025):

target: human PDE1B enzyme (Homo sapiens (Human), UniProt Q01064); experiment: IMAP TR-FRET PDE1B enzymatic assay; assay type: biochemical; details: negative log of half-maximal molar inhibitory concentration; 200 nM FAM-cAMP; values given as bins
Summary of the method: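 Full-length GST-tagged human PDE1B (250 pg/well) in IMAP BSA buffer with 10 U/ml calmodulin and 2.5 mM CaCl2; compound pre-incubated 5 min at room temperature, then 200 nM (final) FAM-cAMP for 30 min. IMAP binding reagent/Tb added, 1 h; TR-FRET 520/490 ratio read. IC50 from sigmoidal dose-response fit.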

SMILES | PDE1b (pIC50)
Cc1oc2ncnc(NC3(C)CC3)c2c1C(=O)N1CCC(c2ccc(O)cc2)C1 (stereo not shown) [Example 346, 4-(1-{6-Methyl-4-[(1-methylcyclopropyl)amino]furo[2,3-d]pyrimidine-5-carbonyl}pyrrolidin-3-yl)phenol] | >8
Cc1oc2ncnc(NC3(C)CC3)c2c1C(=O)N1CCC(c2ncccn2)CC1 [Example 309, 6-Methyl-N-(1-methylcyclopropyl)-5-[4-(pyrimidin-2-yl)piperidine-1-carbonyl]furo[2,3-d]pyrimidin-4-amine] | >8
Cc1oc2ncnc(NC3(C)CC3)c2c1C(=O)N1CCC(c2ccc(C(N)=O)cc2)CC1 [Example 382, 4-(1-{6-Methyl-4-[(1-methylcyclopropyl)amino]furo[2,3-d]pyrimidine-5-carbonyl}piperidin-4-yl)benzamide] | >8
Cc1oc2ncnc(NC3(C)CC3)c2c1C(=O)NCc1ccc(OC(F)F)cn1 [Example 59, N-{[5-(Difluoromethoxy)pyridin-2-yl]methyl}-6-methyl-4-[(1-methylcyclopropyl)amino]furo[2,3-d]pyrimidine-5-carboxamide] | >8
COc1cnc(C2CCN(C(=O)c3c(C)oc4ncnc(NC5(C)CC5)c34)CC2)nc1 [Example 370, 5-[4-(5-Methoxypyrimidin-2-yl)piperidine-1-carbonyl]-6-methyl-N-(1-methylcyclopropyl)furo[2,3-d]pyrimidin-4-amine] | >8

same assay, conditions: negative log of half-maximal molar inhibitory concentration; 200 nM FAM-cAMP; values given as bins; read-out: PDE1b (pIC50) (converted)

SMILES | IC50 [nM]
Cc1oc2ncnc(NC3(C)CC3)c2c1C(=O)Nc1cnn(Cc2ccccn2)c1 [Example 472, 6-Methyl-4-[(1-methylcyclopropyl)amino]-N-[1-(pyridin-2-ylmethyl)-1H-pyrazol-4-yl]furo[2,3-d]pyrimidine-5-carboxamide] | 10 to 100
Cc1oc2ncnc(NC3(C)CC3)c2c1C(=O)NC(C)c1ccccn1 (stereo not shown) [Example 77, 6-Methyl-4-[(1-methylcyclopropyl)amino]-N-[1-(pyridin-2-yl)ethyl]furo[2,3-d]pyrimidine-5-carboxamide] | 10 to 100
Cc1oc2ncnc(NC3(C)CC3)c2c1C(=O)NCc1ncc(C(C)C)o1 [Example 664, 6-Methyl-4-[(1-methylcyclopropyl)amino]-N-{[5-(propan-2-yl)-1,3-oxazol-2-yl]methyl}furo[2,3-d]pyrimidine-5-carboxamide] | 10 to 100
Cc1cc(C)n(C(=O)c2c(C)oc3ncnc(NC4(C)CC4)c23)n1 [Example 411, 5-(3,5-Dimethyl-1H-pyrazole-1-carbonyl)-6-methyl-N-(1-methylcyclopropyl)furo[2,3-d]pyrimidin-4-amine] | 10 to 100
Cc1ncc(CNC(=O)c2c(C)oc3ncnc(NC4(C)CC4)c23)c(=O)[nH]1 [Example 673, 6-Methyl-N-[(2-methyl-6-oxo-1,6-dihydropyrimidin-5-yl)methyl]-4-[(1-methylcyclopropyl)amino]furo[2,3-d]pyrimidine-5-carboxamide] | 10 to 100
Cc1oc2ncnc(NC3(C)CC3)c2c1C(=O)Nc1cc(C)n(C)n1 [Example 439, N-(1,5-Dimethyl-1H-pyrazol-3-yl)-6-methyl-4-[(1-methylcyclopropyl)amino]furo[2,3-d]pyrimidine-5-carboxamide] | 100 to 1000
COc1ccc(NC(=O)c2c(C)oc3ncnc(NC4(C)CC4)c23)c(C)c1 [Example 244, N-(4-Methoxy-2-methylphenyl)-6-methyl-4-[(1-methylcyclopropyl)amino]furo[2,3-d]pyrimidine-5-carboxamide] | 10 to 100
Cc1nnc(CNC(=O)c2c(C)oc3ncnc(NC4(C)CC4)c23)o1 [Example 717, 6-Methyl-N-[(5-methyl-1,3,4-oxadiazol-2-yl)methyl]-4-[(1-methylcyclopropyl)amino]furo[2,3-d]pyrimidine-5-carboxamide] | 10 to 100
Cc1oc2ncnc(NC3(C)CC3)c2c1C(=O)n1cc(-c2ccc(F)cc2)cn1 [Example 407, 5-[4-(4-Fluorophenyl)-1H-pyrazole-1-carbonyl]-6-methyl-N-(1-methylcyclopropyl)furo[2,3-d]pyrimidin-4-amine] | 10 to 100
Cc1oc2ncnc(NC3(C)CC3)c2c1C(=O)NCc1ccc[nH]1 [Example 98, 6-Methyl-4-[(1-methylcyclopropyl)amino]-N-(1H-pyrrol-2-ylmethyl)furo[2,3-d]pyrimidine-5-carboxamide] | 10 to 100
Cc1oc2ncnc(NC3(C)CC3)c2c1C(=O)NC1(CO)CCC1 [Example 353, N-[1-(Hydroxymethyl)cyclobutyl]-6-methyl-4-[(1-methylcyclopropyl)amino]furo[2,3-d]pyrimidine-5-carboxamide] | 10 to 100
Cc1oc2ncnc(NC3(C)CC3)c2c1C(=O)NCCO [Example 134, N-(2-Hydroxyethyl)-6-methyl-4-[(1-methylcyclopropyl)amino]furo[2,3-d]pyrimidine-5-carboxamide] | 100 to 1000
COCCNC(=O)c1c(C)oc2ncnc(NC3(C)CC3)c12 [Example 95, N-(2-Methoxyethyl)-6-methyl-4-[(1-methylcyclopropyl)amino]furo[2,3-d]pyrimidine-5-carboxamide] | 100 to 1000
Cc1oc2ncnc(NC3(C)CC3)c2c1C(=O)N1C[C@@H]2[C@H](C1)[C@H]2c1ccc(C(F)(F)F)cn1 [Example 65, 6-Methyl-N-(1-methylcyclopropyl)-5-[(1R,5S,6S)-6-[5-(trifluoromethyl)pyridin-2-yl]-3-azabicyclo[3.1.0]hexane-3-carbonyl]furo[2,3-d]pyrimidin-4-amine] | 100 to 1000
Cc1oc2ncnc(NC3(C)CC3)c2c1C(=O)NCc1cncn1C [Example 115, 6-Methyl-N-[(1-methyl-1H-imidazol-5-yl)methyl]-4-[(1-methylcyclopropyl)amino]furo[2,3-d]pyrimidine-5-carboxamide] | 100 to 1000
Cc1oc2ncnc(NC3(C)CC3)c2c1C(=O)Nc1cnn(-c2ncccn2)c1 [Example 473, 6-Methyl-4-[(1-methylcyclopropyl)amino]-N-[1-(pyrimidin-2-yl)-1H-pyrazol-4-yl]furo[2,3-d]pyrimidine-5-carboxamide] | 10 to 100
COCc1nc2c(c(=O)[nH]1)CCN(C(=O)c1c(C)oc3ncnc(NC4(C)CC4)c13)C2 [Example 425, 2-(Methoxymethyl)-7-{6-methyl-4-[(1-methylcyclopropyl)amino]furo[2,3-d]pyrimidine-5-carbonyl}-3H,4H,5H,6H,7H,8H-pyrido[3,4-d]pyrimidin-4-one] | 100 to 1000
Cc1csc(NC(=O)c2c(C)oc3ncnc(NC4(C)CC4)c23)n1 [Example 443, 6-Methyl-N-(4-methyl-1,3-thiazol-2-yl)-4-[(1-methylcyclopropyl)amino]furo[2,3-d]pyrimidine-5-carboxamide] | 10 to 100
Cc1oc2ncnc(NC3(C)CC3)c2c1C(=O)NCc1cccc(F)n1 [Example 280, N-[(6-Fluoropyridin-2-yl)methyl]-6-methyl-4-[(1-methylcyclopropyl)amino]furo[2,3-d]pyrimidine-5-carboxamide] | 10 to 100
Cc1oc2ncnc(NC3(C)CC3)c2c1C(=O)N1Cc2cnc(C(F)(F)F)nc2C1 [Example 36, 6-Methyl-N-(1-methylcyclopropyl)-5-[2-(trifluoromethyl)-5H,6H,7H-pyrrolo[3,4-d]pyrimidine-6-carbonyl]furo[2,3-d]pyrimidin-4-amine] | 100 to 1000
